Ki data for 29 compounds are collected here from patent US8802674B2, “Aminopyrimidine derivatives as LRRK2 modulators” (Genentech, Inc., priority 2011, dated 2014).

The target of the assay is LRRK2 (Homo sapiens (Human), UniProt Q5S007, G2019S). Kind of assay: In Vitro LRRK2 LabChip Assay. The assay is classed as biochemical. The procedure: In Vitro LRRK2 LabChip Assay
This assay was used to determine a compound's potency in inhibiting activity of LRRK2 by determining, Kiapp, IC50, or percent inhibition values. In a polypropylene plate, LRRK2, fluorescently-labeled peptide substrate, ATP and test compound were incubated together. Using a LabChip 3000 (Caliper Life Sciences), after the reaction the substrate was separated by capillary electrophoresis into two populations: phosphorylated and unphosphorylated. The relative amounts of each were quantitated by fluorescence intensity. LRRK2 Ki was determined according to the equation: Y=V0*(1−((x+Ki*(1+S/Km)+Et)/(2*Et)−(((x+Ki*(1+S/Km)+Et)^2−(4*Et*x))^0.5)/(2*Et))). Ki values in Table 4 and elsewhere herein are shown in μM.
Assay conditions and materials used were as follows:
Compound Plate Preparation:
For serial dilutions, 34.6 μl DMSO was added to columns 3-24. For the assay controls, 37.5 μl DMSO was added to columns 1 and 2 of rows A and P. a,d and 50 μl 25 μM G-028831 (Staurosporine) was added to columns 1 and 2, row B. For the samples: to start at 100 μM, 37.5 μl DMSO was to columns 1 and 2, then 12.5 μl 10 mM compound; to start at 10 μM, 78 μl DMSO was added to columns 1 & 2, then 2 μl 10 mM compound; and to start at 1 μM, 25 μM compound (2 μl 10 mM cmpd+798 μl DMSO) was added to empty columns 1 and 2. A Precision instrument was used to perform 1:3.16 serial dilutions (“PLK_BM_serial_halflog”).
ATP was diluted to 282.1 μM in Complete Kinase Buffer (final concentration was 130 μM).
Total and Blank Preparation:
In Complete Reaction Buffer, substrate was diluted to 4 μM. Equal volumes of Complete Reaction Buffer and 4 μM substrate were combined to obtain the blank. Equal volumes of Complete Reaction Buffer and 4 μM substrate were combined and to the combined solution was added 2× final LRRK2 concentration.
To a 50 μl polypropylene plate, 5 μl/well buffer/substrate was added by hand to Blank wells. A Biomek FX was used to start the kinase reaction (“PLK SAR 23 ATP”). The following were added to the appropriate wells:
5 μl/well compound/ATP in Assay Plate;
5 μl/well kinase/substrate in Assay Plate;
The plate was incubated for 2 hours in the dark. Biomek FX was used to stop the kinase reaction (“PLK Stop”), and 10 μl/well Stop solution was added to the Assay Plate. Results were read on the LabChip 3000.
The LabChip 3000 was run using the job “LRRK2IC50” with the following job settings: […]

Sequence of LRRK2 (Q5S007 970-2527 G2019S limits assumed): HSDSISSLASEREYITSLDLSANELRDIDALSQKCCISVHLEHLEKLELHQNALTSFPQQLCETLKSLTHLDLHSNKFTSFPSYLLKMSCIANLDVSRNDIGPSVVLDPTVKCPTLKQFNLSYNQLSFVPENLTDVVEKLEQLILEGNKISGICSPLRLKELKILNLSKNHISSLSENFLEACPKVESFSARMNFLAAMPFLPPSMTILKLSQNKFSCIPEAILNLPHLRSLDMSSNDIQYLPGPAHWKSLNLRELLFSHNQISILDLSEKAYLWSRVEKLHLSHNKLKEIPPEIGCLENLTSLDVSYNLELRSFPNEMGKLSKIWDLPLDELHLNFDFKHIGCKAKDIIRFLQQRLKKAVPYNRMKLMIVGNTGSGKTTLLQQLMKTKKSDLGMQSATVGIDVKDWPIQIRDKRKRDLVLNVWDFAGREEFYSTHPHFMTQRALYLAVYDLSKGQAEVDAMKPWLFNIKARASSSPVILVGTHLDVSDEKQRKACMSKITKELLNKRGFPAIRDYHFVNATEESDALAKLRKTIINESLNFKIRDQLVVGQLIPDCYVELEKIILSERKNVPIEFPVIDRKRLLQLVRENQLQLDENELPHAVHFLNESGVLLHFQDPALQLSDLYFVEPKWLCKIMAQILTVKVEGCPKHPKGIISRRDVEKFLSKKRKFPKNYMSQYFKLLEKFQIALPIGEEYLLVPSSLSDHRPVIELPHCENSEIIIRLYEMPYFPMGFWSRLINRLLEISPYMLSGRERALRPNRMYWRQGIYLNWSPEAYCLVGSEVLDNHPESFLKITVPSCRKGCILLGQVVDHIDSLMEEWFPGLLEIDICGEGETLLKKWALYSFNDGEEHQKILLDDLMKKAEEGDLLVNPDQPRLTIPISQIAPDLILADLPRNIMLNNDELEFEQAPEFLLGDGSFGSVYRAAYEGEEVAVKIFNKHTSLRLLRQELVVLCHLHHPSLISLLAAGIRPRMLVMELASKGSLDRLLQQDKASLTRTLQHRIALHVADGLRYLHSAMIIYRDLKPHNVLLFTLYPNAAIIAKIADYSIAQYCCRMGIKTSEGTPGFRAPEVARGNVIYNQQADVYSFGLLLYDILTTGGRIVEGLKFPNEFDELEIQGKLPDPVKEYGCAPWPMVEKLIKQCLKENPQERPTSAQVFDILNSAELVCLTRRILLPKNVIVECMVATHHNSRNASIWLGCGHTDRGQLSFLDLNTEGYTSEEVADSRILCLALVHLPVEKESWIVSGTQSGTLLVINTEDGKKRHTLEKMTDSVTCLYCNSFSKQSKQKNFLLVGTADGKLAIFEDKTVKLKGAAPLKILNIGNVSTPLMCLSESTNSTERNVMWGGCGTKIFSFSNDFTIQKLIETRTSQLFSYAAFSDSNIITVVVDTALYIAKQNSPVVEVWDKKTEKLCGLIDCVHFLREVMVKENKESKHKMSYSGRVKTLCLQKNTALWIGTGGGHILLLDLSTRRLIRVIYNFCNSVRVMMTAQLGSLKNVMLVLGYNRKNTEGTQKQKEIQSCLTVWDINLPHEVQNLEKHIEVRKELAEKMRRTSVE

With `COc1cc(C(=O)N2CCOCC2)ccc1Nc1ncc(Cl)c(NCC2CCOC2)n1` (centres unmarked) [Example 93, (4-{5-Chloro-4-[(tetrahydro-furan-3-ylmethyl)-amino]-pyrimidin-2-ylamino}-3-methoxy-phenyl)-morpholin-4-yl-methanone], the inhibition constant (Ki) (as a rule, a measure of affinity in units of concentration, obtained from inhibition or displacement) (Table 4) is 14.1 nM.
Compound `CCOc1cc(C(=O)N2CCOCC2)ccc1Nc1ncc(C(F)(F)F)c(NC)n1` [Example 216, [3-Ethoxy-4-(4-methylamino-5-trifluoromethyl-pyrimidin-2-ylamino)-phenyl]-morpholin-4-yl-methanone] registered a Ki (Table 4) of 4.2 nM.
Compound `CCC1(CC)CN(C(=O)c2ccc(Nc3ncc(Cl)c(NC)n3)c(OC)c2)CCO1` [Example 39, [4-(5-Chloro-4-methylamino-pyrimidin-2-ylamino)-3-methoxy-phenyl]-(2,2-diethyl-morpholin-4-yl)-methanone] had a Ki (Table 4) of 5.5 nM.
For the setting “Table 4”, `CCNc1nc(Nc2cc(F)c(C(=O)N3CCOCC3)cc2OC)ncc1Cl` [Example 87, [4-(5-Chloro-4-ethylamino-pyrimidin-2-ylamino)-2-fluoro-5-methoxy-phenyl]-morpholin-4-yl-methanone] displayed a Ki of 2.5 nM.
`[2H]C1([2H])OC([2H])([2H])C([2H])([2H])N(C(=O)c2cc(Cl)c(Nc3ncc(C(F)(F)F)c(NC)n3)cc2OC)C1([2H])[2H]` [Example 236, (5-chloro-2-methoxy-4-(4-(methylamino)-5-(trifluoromethyl)pyrimidin-2-ylamino)phenyl) (perdeuteromorpholino) methanone] returned a Ki (Table 4) of 4.2 nM.
`CNc1nc(Nc2cc(OC)c(C(N)=O)cc2Cl)ncc1Cl` [Example 141, 5-Chloro-4-(5-chloro-4-methylamino-pyrimidin-2-ylamino)-2-methoxy-benzamide] displayed a Ki (Table 4) of 9.3 nM.
`CNc1nc(Nc2ccc(C(=O)NC(C)C)cc2OC)ncc1C#N` [Example 200, 4-(5-Cyano-4-methylamino-pyrimidin-2-ylamino)-N-isopropyl-3-methoxy-benzamide]: for the setting “Table 4”, the inhibitory constant (Ki) was determined as 4.4 nM.
On the same count and under the same terms, as for `CNc1nc(Nc2ccc(C(=O)N3CCC(O)CC3)cc2C)ncc1Cl` [Example 233, (4-(5-chloro-4-(methylamino)pyrimidin-2-ylamino)-3-methylphenyl)(4-hydroxypiperidin-1-yl)methanone], the figure is 6.1 nM; as for `CNc1nc(Nc2ccc(C(=O)N3CCC(F)(F)CC3)cc2OC)ncc1Cl` [Example 17, [4-(5-Chloro-4-methylamino-pyrimidin-2-ylamino)-3-methoxy-phenyl]-(4,4-difluoro-piperidin-1-yl)-methanone], 3 nM.
As for `CNc1nc(Nc2cc(OC)c(C(=O)N(C)CC(C)(C)O)cc2Cl)ncc1C(F)(F)F` [Example 181, 5-Chloro-N-(2-hydroxy-2-methyl-propyl)-2-methoxy-N-methyl-4-(4-methylamino-5-trifluoromethyl-pyrimidin-2-ylamino)-benzamide], affinity (Table 4) was put at a Ki of 6.3 nM.
Still for that read-out and setting: with `COc1cc(C(=O)N2CCOCC2)ccc1Nc1ncc(Cl)c(OC(C)C)n1` [Example 59, [4-(5-Chloro-4-isopropoxy-pyrimidin-2-ylamino)-3-methoxy-phenyl]-morpholin-4-yl-methanone] the figure was 13 nM; with `CNc1nc(Nc2ccc(C(=O)N3CCC(C#N)CC3)cc2OC)ncc1Br` [Example 73, l-[4-(5-Bromo-4-methylamino-pyrimidin-2-ylamino)-3-methoxy-benzoyl]-piperidine-4-carbonitrile], 4.1 nM; with `COc1nc(Nc2ccc(C(=O)N3CCOCC3)cc2OC2CCC2)ncc1Br` [Example 85, [4-(5-Bromo-4-methoxy-pyrimidin-2-ylamino)-3-cyclobutoxy-phenyl]-morpholin-4-yl-methanone], 2.8 nM.
Compound `COc1cc(C(=O)N2CCOCC2)ccc1Nc1ncc(C2CC2)c(OC)n1` [Example 182, (4-(5-cyclopropyl-4-methoxypyrimidin-2-ylamino)-3-methoxyphenyl) (morpholino) methanone] had a Ki (Table 4) of 89.5 nM.
For `CNc1nc(Nc2ccc(C(=O)NC3CCC(F)(F)CC3)cc2OC)ncc1C(F)(F)F` [Example 283, N-(4,4-Difluoro-cyclohexyl)-3-methoxy-4-(4-methylamino-5-trifluoromethyl-pyrimidin-2-ylamino)-benzamide], the affinity (Table 6) corresponds to a Ki of 1.1 nM.
Compound `CNc1nc(Nc2ccc(C(N)=O)cc2OC)ncc1Cl` [Example 51, 4-(5-Chloro-4-methylamino-pyrimidin-2-ylamino)-3-methoxy-benzamide] returned a Ki (Table 4) of 5.1 nM.
In the case of `CCNc1nc(Nc2cc(F)c(C(=O)N3CCC[C@H]3COC)cc2OC)ncc1C(F)(F)F` [Example 306, [4-(4-Ethylamino-5-trifluoromethyl-pyrimidin-2-ylamino)-2-fluoro-5-methoxy-phenyl]-((S)-2-methoxymethyl-pyrrolidin-1-yl)-methanone], where the note is “Table 6”, the Ki is 0.6 nM.
`CNc1nc(Nc2cc(OC)c(C(=O)N3CCC(OC)C3)cc2Cl)ncc1C(F)(F)F` (centres unmarked) [Example 246, (5-chloro-2-methoxy-4-(4-(methylamino)-5-(trifluoromethyl)pyrimidin-2-ylammo)phenyl)(3-methoxypyrrolidin-1-yl)methanone] yielded a Ki (Table 4) of 5 nM.
For the compound `CNc1nc(Nc2cc(OC)c(C(=O)N3CCC(C#N)CC3)cc2Cl)ncc1Cl` [Example 167, l-[5-Chloro-4-(5-chloro-4-methylamino-pyrimidin-2-ylamino)-2-methoxy-benzoyl]-piperidine-4-carbonitrile], the affinity (Table 4) corresponds to a Ki of 3.3 nM.
Turning to `CNc1nc(Nc2ccc(C(=O)N3CC4CCC(C3)O4)cc2OC)ncc1C(F)(F)F` [Example 272, [3-Methoxy-4-(4-methylamino-5-trifluoromethyl-pyrimidin-2-ylamino)-phenyl]-(8-oxa-3-aza-bicyclo[3.2.1]oct-3-yl)-methanone], where the note is “Table 6”, the Ki came out at 1.7 nM.
Where the note is “Table 5”, `CCNc1nc(Nc2cc(F)c(C(=O)N3CCOCC3)cc2OC)ncc1C(F)(F)F` [Example 256, [4-(4-Ethylamino-5-trifluoromethyl-pyrimidin-2-ylamino)-2-fluoro-5-methoxy-phenyl]-morpholin-4-yl-methanone] showed a Ki of 2 nM.
In the case of `CCN(C(=O)c1ccc(Nc2ncc(C#N)c(NC)n2)c(OC)c1)C(C)C` [Example 207, 4-(5-Cyano-4-methylamino-pyrimidin-2-ylamino)-N-ethyl-N-isopropyl-3-methoxy-benzamide], where the note is “Table 4”, the Ki stood at 5.4 nM.
Regarding `CNC(=O)c1cc(OC)c(Nc2ncc(C(F)(F)F)c(NC)n2)cc1F` [Example 180, 2-Fluoro-5-methoxy-N-methyl-4-(4-methylamino-5-trifluoromethyl-pyrimidin-2-ylamino)-benzamide], for the setting “Table 4”, affinity was put at a Ki of 4.7 nM.
In turn, `CNc1nc(Nc2cc(F)c(C(=O)N3C[C@@H](C)O[C@@H](C)C3)cc2OC)ncc1C#N` [Example 318, 2-[4-((2R,6S)-2,6-Dimethyl-morpholine-4-carbonyl)-5-fluoro-2-methoxy-phenylamino]-4-methylamino-pyrimidine-5-carbonitrile] yielded an inhibition constant Ki (Table 7) of 36.8 nM.
For the setting “Table 6”, `CNc1nc(Nc2ccc(C(=O)N3CCOCC3)cc2C2CC2)ncc1C(F)(F)F` [Example 289, [3-Cyclopropyl-4-(4-methylamino-5-trifluoromethyl-pyrimidin-2-ylamino)-phenyl]-morpholin-4-yl-methanone] had an inhibition constant (Ki) of 20 nM.
Under “Table 6”, `CNc1nc(Nc2cc(Cl)c(C(=O)N3CCOCC3)cc2OC)ncc1C(F)(F)F` [Example 292, [2-Chloro-5-methoxy-4-(4-methylamino-5-trifluoromethyl-pyrimidin-2-ylamino)-phenyl]-morpholin-4-yl-methanone] registered a Ki of 2 nM.
As for `CNc1nc(Nc2ccc(C(=O)N3CCOCC3)cc2O)ncc1Cl` [Example 82, [4-(5-Chloro-4-methylamino-pyrimidin-2-ylamino)-3-hydroxy-phenyl]-morpholin-4-yl-methanone], the Ki (Table 4) was found to be 28.9 nM.
For the compound `CNc1nc(Nc2cc(OC)c(C(=O)N3CCCC3)cc2Cl)ncc1Cl` [Example 156, [5-Chloro-4-(5-chloro-4-methylamino-pyrimidin-2-ylamino)-2-methoxy-phenyl]-pyrrolidin-1-yl-methanone], the Ki (Table 4) amounted to 7.4 nM.
Consider `CNc1nc(Nc2ccc(C(=O)N3CCOCC3)cc2Cl)ncc1C(F)(F)F` [Example 291, [3-Chloro-4-(4-methylamino-5-trifluoromethyl-pyrimidin-2-ylamino)-phenyl]-morpholin-4-yl-methanone], for which the Ki (Table 6) is 17 nM.
